Laboratory results taken from paper PMC10178848, “Modulating fast skeletal muscle contraction protects skeletal muscle in animal models of Duchenne muscular dystrophy” (The Journal of Clinical Investigation, 2023).
Read-outs that look alike come from different tables or passages of the source.

Experiments:
Human Soleus myofibrils = assay: Myofibril ATPase, human soleus; format: biochemical
Method: Myofibrils were prepared from various animals and tissues: rabbit psoas muscle and porcine cardiac muscle were purchased from Pel-Freez Biologicals. Human bicep and soleus muscle were purchased from BioIVT, and neonatal rat muscle was obtained in house. All myofibrils were prepared using published methods ([21]).
A lactate dehydrogenase/pyruvate kinase enzyme-coupled system ([62]) was used to monitor ATP hydrolysis rates in various muscle preparations. Rabbit psoas myofibrils were used for high-throughput screening at pCa 6.25 at 0.25 mg/mL. A multidrop cassette (Thermo Fisher Scientific) dispensed 10 μL of the coupled enzyme system, calcium, and myofibrils to 10 μL ATP, NADH and PEP to initiate the reaction prior to reading on a plate reader (Envision, Perkin Elmer) for 10 minutes per plate at room temperature. Hits were reconfirmed, and secondary assays were used to evaluate selectivity, including bovine cardiac myofibrils (pCa 5.86) and enzyme coupled hits with a hexokinase screen (Sigma-Aldrich).

[1] = system: psoas S1 (fast skeletal muscle myosin); assay: Stopped-flow analysis of Pi release from myosin; format: biochemical, rabbit; set-up: dose or concentration left out as unconfirmed; details: preincubation with myosin 30 minutes prior to actin
Method: The rate of Pi release from myosin with actin utilized a fluorescent phosphate binding protein, as described previously ([63]). Experiments were performed in 10 mM MOPS, pH 7.0; 5 mM KCL; 1 mM EGTA; 1 mM DTT; 0.5 mM MgCl2. ATP and ADP were removed by incubation with apyrase ([64]). Prior to mixing with 1 mM ATP in a stopped flow device, compound was incubated with 6 μM psoas S1 at 25°C for 30 minutes.

[2] = system: mixed fast/slow mouse soleus muscle; assay: Ex vivo isometric force, mouse soleus; details: 31% type I, 60% type IIa/IIx
Method: Isometric force was measured ex vivo in mouse EDL and soleus muscle. EDL muscle eccentric injury was based on published protocols ([30]), with degree of lengthening and stimulation modified to yield a uniform drop in mdx isometric and peak force over 10 contractions. After isolation, muscle was mounted via 5-0 suture to a combination servomotor/force transducer (300C-LR, Aurora) between 2 electrodes connected to a stimulator (701C, Aurora) in Ringers solution at 27°C with continuously infused CO2/O2 gas mixture. Experiments were recorded with custom MATLAB software via a National Instruments PCIe-6321 board and 2090A BNC connector. Muscles were preincubated for 60 minutes with DMSO (final 0.1%)/compound before 10 eccentric contractions, 1 minute apart, with 100 milliseconds of isometric stimulation at 100 Hz and active lengthening of 0.1 L0 at a rate of 2 L0/s. After lengthening, muscles were held at 1.1 L0 with stimulation for 100 milliseconds (Supplemental Figure 2A).

mdx EDL muscle = assay: Procion orange dye uptake after eccentric contraction; set-up: species or system mouse
Method: For procion imaging, injury protocols were performed in 1% procion MX Dye (020 Brilliant Orange, Jacquard Products) and fixed in cold 4% paraformaldehyde and then cold 30% sucrose/PBS before cryosection. Laminin immunohistochemistry used rabbit polyclonal (L9393, Sigma-Aldrich, 1:20) and chicken anti-rabbit Alexa Fluor 488 (Invitrogen, 1:500). Slides were scanned at ×20 with Nikon Te-2000 dark-field microscopy and analyzed with Imaris software (Bitplane AG). Imaris’ surface component algorithm was used to detect procion-labeled fiber boundaries. Nonspecific procion staining of the peripheral tendon and outer layer of cells (where handling could cause injury) was excluded by applying a size and location filter (>2× average fiber size and located adjacent to laminin-positive fibers at the edge of the muscle). Each fiber was identified with an ID and color coded before calculation.

ABL1-phosphorylated = target: T1, ABL1-phosphorylated (Homo sapiens, UniProt P00519); assay: KINOMEscan scanEDGE; format: binding; details: 20 uM
T1 construct: purchased Eurofins DiscoverX (KINOMEscan; SAFETYscan E/IC50 ELECT)

BRAF(V600E) = target: T2, BRAF(V600E) (Homo sapiens, UniProt P15056, V600E); assay: KINOMEscan scanEDGE; format: binding; details: 20 uM
T2 construct: purchased Eurofins DiscoverX (KINOMEscan; SAFETYscan E/IC50 ELECT)
T2 sequence (P15056 whole entry V600E): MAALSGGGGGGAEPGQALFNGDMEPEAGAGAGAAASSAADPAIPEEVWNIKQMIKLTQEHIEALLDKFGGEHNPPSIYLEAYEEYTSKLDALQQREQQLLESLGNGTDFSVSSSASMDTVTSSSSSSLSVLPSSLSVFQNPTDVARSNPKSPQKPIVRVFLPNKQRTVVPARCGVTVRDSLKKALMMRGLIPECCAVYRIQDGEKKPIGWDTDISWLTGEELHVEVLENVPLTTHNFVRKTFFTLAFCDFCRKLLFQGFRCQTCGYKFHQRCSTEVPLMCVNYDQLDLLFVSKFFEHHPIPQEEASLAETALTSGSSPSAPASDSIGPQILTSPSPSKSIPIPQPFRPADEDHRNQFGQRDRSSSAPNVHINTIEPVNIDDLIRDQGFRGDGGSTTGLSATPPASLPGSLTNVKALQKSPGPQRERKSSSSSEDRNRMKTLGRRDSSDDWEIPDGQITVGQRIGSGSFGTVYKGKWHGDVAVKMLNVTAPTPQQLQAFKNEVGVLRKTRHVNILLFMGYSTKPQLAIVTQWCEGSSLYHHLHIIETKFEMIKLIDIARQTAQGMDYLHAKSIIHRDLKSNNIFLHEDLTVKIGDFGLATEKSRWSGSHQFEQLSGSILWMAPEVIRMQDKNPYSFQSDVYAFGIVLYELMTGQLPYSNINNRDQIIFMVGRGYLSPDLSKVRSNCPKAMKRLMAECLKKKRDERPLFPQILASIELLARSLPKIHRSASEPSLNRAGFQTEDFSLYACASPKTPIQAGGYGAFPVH

ERBB4 = target: T3, ERBB4 (Homo sapiens, UniProt Q15303); assay: KINOMEscan scanEDGE; format: binding; details: 20 uM
T3 construct: purchased Eurofins DiscoverX (KINOMEscan; SAFETYscan E/IC50 ELECT)

FLT3 = target: T4, FLT3 (Homo sapiens, UniProt P36888); assay: KINOMEscan scanEDGE; format: binding; details: 20 uM
T4 construct: purchased Eurofins DiscoverX (KINOMEscan; SAFETYscan E/IC50 ELECT)

MET = target: T5, MET (Homo sapiens, UniProt P08581); assay: KINOMEscan scanEDGE; format: binding; details: 20 uM
T5 construct: purchased Eurofins DiscoverX (KINOMEscan; SAFETYscan E/IC50 ELECT)
T5 sequence (P08581 25-1390): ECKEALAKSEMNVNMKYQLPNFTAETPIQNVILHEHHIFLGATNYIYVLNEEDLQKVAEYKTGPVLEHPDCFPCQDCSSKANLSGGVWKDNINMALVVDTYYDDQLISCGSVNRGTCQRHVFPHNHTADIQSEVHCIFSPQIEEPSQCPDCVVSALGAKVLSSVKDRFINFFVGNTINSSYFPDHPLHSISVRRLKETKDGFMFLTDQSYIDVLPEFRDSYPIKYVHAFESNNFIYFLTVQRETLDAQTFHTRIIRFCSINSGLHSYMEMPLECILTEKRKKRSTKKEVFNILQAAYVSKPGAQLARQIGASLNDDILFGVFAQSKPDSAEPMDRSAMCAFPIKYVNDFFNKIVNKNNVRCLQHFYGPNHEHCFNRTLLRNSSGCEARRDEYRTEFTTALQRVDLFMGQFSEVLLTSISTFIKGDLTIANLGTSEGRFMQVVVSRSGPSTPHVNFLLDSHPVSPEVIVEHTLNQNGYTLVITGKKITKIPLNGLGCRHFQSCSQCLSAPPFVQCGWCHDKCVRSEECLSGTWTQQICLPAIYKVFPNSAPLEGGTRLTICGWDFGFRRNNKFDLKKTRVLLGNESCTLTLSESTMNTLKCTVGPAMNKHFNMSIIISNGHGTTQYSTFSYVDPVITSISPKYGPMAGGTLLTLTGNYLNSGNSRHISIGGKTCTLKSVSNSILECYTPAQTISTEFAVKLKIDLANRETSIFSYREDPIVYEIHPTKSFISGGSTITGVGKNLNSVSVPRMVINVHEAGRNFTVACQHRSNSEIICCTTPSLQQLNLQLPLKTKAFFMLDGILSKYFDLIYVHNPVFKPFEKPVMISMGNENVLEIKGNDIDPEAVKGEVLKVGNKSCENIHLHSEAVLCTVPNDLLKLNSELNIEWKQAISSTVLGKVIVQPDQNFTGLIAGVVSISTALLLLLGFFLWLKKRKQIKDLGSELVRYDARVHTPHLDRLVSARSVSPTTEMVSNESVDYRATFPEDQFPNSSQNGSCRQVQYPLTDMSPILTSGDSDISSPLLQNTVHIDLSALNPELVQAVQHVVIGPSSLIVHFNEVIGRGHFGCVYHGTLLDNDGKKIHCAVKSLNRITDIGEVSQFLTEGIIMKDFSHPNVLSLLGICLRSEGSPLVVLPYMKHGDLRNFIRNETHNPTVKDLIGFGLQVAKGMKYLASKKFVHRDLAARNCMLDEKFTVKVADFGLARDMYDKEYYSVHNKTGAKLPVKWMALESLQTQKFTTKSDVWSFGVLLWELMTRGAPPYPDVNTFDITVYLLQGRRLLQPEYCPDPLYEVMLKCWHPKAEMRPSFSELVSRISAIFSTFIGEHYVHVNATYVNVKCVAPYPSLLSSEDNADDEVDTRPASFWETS

p38-beta = target: T6, p38-beta (Homo sapiens, UniProt Q15759); assay: KINOMEscan scanEDGE; format: binding; details: 20 uM
T6 construct: purchased Eurofins DiscoverX (KINOMEscan; SAFETYscan E/IC50 ELECT)

PAK4 = target: T7, PAK4 (Homo sapiens, UniProt O96013); assay: KINOMEscan scanEDGE; format: binding; details: 20 uM
T7 construct: purchased Eurofins DiscoverX (KINOMEscan; SAFETYscan E/IC50 ELECT)
T7 sequence (O96013 whole entry): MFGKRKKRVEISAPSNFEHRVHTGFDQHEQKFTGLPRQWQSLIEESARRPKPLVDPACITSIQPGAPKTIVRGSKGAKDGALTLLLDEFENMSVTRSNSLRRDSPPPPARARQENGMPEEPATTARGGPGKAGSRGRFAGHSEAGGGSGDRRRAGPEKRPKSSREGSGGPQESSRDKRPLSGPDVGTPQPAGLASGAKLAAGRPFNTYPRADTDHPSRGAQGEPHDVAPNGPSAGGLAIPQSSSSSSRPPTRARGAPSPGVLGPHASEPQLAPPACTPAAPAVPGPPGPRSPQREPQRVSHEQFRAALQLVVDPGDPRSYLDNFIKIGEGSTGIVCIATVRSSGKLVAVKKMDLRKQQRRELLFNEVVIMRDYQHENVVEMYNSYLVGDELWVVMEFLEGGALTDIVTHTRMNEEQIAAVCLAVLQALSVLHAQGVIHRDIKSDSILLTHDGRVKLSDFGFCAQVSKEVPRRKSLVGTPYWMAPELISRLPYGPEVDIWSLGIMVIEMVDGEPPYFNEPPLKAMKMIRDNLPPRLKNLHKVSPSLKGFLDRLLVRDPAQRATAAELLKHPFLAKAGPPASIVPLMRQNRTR

PLK4 = target: T8, PLK4 (Homo sapiens, UniProt O00444); assay: KINOMEscan scanEDGE; format: binding; details: 20 uM
T8 construct: purchased Eurofins DiscoverX (KINOMEscan; SAFETYscan E/IC50 ELECT)

RAF1 = target: T9, RAF1 (Homo sapiens, UniProt P04049); assay: KINOMEscan scanEDGE; format: binding; details: 20 uM
T9 construct: purchased Eurofins DiscoverX (KINOMEscan; SAFETYscan E/IC50 ELECT)

[3] = target: T10, RSK2(Kin.Dom.1-N-terminal) (Homo sapiens, UniProt P51812); assay: KINOMEscan scanEDGE; format: binding; details: 20 uM
T10 construct: RSK2(Kin.Dom.1-N-terminal); purchased Eurofins DiscoverX (KINOMEscan; SAFETYscan E/IC50 ELECT)
T10 sequence (P51812 1-397 limits assumed): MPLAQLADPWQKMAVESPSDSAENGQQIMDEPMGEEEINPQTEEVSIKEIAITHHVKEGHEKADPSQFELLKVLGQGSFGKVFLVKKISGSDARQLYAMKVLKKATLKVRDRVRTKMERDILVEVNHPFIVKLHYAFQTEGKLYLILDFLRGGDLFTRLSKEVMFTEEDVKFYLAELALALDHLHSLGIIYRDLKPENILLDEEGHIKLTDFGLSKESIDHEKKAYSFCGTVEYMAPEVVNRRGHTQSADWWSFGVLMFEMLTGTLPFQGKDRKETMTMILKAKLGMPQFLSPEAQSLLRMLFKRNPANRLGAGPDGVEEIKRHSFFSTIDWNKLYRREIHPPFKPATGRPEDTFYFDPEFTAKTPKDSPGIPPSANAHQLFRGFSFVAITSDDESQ

SNARK = target: T11, SNARK (Homo sapiens, UniProt Q9H093); assay: KINOMEscan scanEDGE; format: binding; details: 20 uM
T11 construct: purchased Eurofins DiscoverX (KINOMEscan; SAFETYscan E/IC50 ELECT)

TIE2 = target: T12, TIE2 (Homo sapiens, UniProt Q02763); assay: KINOMEscan scanEDGE; format: binding; details: 20 uM
T12 construct: purchased Eurofins DiscoverX (KINOMEscan; SAFETYscan E/IC50 ELECT)
T12 sequence (Q02763 23-1124): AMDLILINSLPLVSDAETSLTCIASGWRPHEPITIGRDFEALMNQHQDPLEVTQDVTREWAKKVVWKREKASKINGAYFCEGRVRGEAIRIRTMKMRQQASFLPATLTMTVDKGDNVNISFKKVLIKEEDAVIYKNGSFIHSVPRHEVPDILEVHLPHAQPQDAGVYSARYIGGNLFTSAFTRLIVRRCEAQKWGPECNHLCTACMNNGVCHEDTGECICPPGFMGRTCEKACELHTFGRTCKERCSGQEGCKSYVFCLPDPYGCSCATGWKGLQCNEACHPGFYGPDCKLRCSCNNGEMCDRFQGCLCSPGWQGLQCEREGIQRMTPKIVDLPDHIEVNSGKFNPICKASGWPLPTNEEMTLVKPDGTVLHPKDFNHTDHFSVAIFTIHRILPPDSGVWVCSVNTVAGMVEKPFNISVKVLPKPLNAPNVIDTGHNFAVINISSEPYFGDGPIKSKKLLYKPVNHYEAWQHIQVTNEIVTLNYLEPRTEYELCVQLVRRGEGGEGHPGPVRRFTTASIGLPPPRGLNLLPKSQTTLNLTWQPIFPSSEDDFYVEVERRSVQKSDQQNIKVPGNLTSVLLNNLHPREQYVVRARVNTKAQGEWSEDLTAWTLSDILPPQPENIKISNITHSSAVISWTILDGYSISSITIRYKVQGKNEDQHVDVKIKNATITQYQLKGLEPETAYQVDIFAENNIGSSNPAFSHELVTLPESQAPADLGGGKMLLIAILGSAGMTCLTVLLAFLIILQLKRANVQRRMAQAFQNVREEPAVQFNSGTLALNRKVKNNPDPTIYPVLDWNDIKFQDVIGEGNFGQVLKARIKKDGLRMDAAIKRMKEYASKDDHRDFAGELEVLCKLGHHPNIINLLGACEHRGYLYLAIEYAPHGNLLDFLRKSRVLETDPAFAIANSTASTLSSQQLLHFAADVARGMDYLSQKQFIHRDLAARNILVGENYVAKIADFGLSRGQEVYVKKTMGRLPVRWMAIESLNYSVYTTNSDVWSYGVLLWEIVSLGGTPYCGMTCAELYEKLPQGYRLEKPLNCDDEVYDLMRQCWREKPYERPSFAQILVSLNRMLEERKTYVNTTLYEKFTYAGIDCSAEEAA

CHRM2 = target: T13, CHRM2 (Homo sapiens, UniProt P08172); assay: SAFETYscan cAMP; format: cell-based; set-up: dose or concentration left out as unconfirmed
T13 construct: purchased Eurofins DiscoverX (KINOMEscan; SAFETYscan E/IC50 ELECT)
T13 sequence (P08172 whole entry): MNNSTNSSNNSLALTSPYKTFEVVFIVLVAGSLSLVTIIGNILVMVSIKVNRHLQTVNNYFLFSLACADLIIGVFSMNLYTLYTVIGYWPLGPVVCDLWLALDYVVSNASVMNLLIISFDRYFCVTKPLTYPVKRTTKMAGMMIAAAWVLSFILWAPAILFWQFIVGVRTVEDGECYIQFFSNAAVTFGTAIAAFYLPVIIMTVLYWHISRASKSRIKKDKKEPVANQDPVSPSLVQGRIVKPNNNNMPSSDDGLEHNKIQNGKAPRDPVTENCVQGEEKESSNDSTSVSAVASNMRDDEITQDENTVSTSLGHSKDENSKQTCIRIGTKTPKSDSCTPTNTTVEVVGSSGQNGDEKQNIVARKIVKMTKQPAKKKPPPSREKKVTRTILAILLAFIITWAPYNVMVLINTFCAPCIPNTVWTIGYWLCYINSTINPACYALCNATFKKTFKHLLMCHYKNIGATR
Method: (§1) The specificity of EDG-5506 for fast skeletal myosin over other, unrelated proteins was confirmed using two off-target binding and activity screens. […] A second off-target panel (SAFETYscan E/IC50 ELECT, Eurofins DiscoverX) tested in vitro enzyme activity against 78 proteins, including GPCR, ion channel, kinases, nuclear hormone receptors, and transporters. In all assays, the IC50 of EDG-5506 was more than 10 μM (Supplemental Data File 1).

CNR2 = target: T14, CNR2 (Homo sapiens, UniProt P34972); assay: SAFETYscan cAMP; format: cell-based; set-up: dose or concentration left out as unconfirmed
T14 construct: purchased Eurofins DiscoverX (KINOMEscan; SAFETYscan E/IC50 ELECT)
T14 sequence (P34972 whole entry): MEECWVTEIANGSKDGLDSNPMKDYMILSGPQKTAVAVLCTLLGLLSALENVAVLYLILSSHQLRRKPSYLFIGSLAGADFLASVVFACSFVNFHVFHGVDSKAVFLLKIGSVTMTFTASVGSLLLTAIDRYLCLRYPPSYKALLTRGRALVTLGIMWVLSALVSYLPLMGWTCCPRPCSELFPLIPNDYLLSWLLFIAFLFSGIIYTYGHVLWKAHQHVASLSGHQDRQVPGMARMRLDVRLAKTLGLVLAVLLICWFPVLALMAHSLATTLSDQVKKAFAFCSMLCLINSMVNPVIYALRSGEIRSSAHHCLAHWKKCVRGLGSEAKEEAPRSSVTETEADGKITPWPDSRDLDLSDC
Method: as §1

[4] = read-out: Max Response (%) (Agonist)
[5] = read-out: Max Response (%) (Antagonist)

## O=c1ccc(-c2cnc(OCC(F)(F)F)nc2)nn1Cc1cncc(F)c1 [EDG-5506]
Human Soleus myofibrils; human soleus myofibrils
  Maximum Inhibition (%): 79%
Human Soleus myofibrils; human soleus, 66% Type I, 33% IIa, IIx, at pCa 50
  IC50: 1100 nM
[1]
  rate of Pi release from myosin with actin: decreased the rate of Pi release
[2]
  ex vivo force inhibition: partial force inhibition
Mdx EDL muscle
  membrane-impermeable dye (procion orange) uptake: effectively reduced dye uptake
ABL1-phosphorylated
  binding, % of control: 72 % of control
BRAF(V600E)
  binding, % of control: 93 % of control
ERBB4
  binding, % of control: 93 % of control
FLT3
  binding, % of control: 89 % of control
MET
  binding, % of control: 55 % of control
p38-beta
  binding, % of control: 54 % of control
PAK4
  binding, % of control: 99 % of control
PLK4
  binding, % of control: 90 % of control
RAF1
  binding, % of control: 100 % of control
[3]
  binding, % of control: 90 % of control
SNARK
  binding, % of control: 100 % of control
TIE2
  binding, % of control: 95 % of control
CHRM2; [4]
  Emax: 21.5%
CHRM2; [5]
  Emax: 0%
CNR2; [4]
  Emax: 27.5%
CNR2; [5]
  Emax: 0%
